According to patent US10487088B2, “Tricyclic compound serving as immunomodulator” (Chia Tai Tianqing Pharmaceutical Group Co., Ltd., priority 2016, dated 2019):

These compounds were tested against T1, recombinant human IDO1 enzyme (Homo sapiens, UniProt P14902) (assay: In vitro hIDO1 enzyme activity test (NFK Green fluorescence)). Details: recombinant human IDO1, L-tryptophan substrate, pH 6.5.
T1 construct: purchased NTRC NTRC-hlDO-10K
Format: biochemical
Description: The change of NFK production was detected by using the NFK Green™ fluorescent molecule, which is the metabolite of the IDO1 enzyme, and the IC50 value of the compound was used as an index, to evaluate the inhibitory effect of the compound on the recombinant human IDO1 enzyme.
IDO1 Enzyme Activity Assay Kit, NTRC # NTRC-hlDO-10K;
The compound was diluted to 1 mM in DMSO, and then diluted 3-fold in duplicate wells, with 10 gradients. 48 μL of 50 mM phosphate buffer (pH 6.5) was transferred to the compound plate via Bravo automated liquid handling platform. 2 μL of the diluted solution of the compound in DMSO was then added and mixed, followed by transferring 10 μL therein to an enzyme reaction plate.
The IDO1 enzyme was diluted to 20 nM in the reaction buffer (50 mM phosphate buffer pH 6.5, 0.1% Tween-20, 2% glycerol, 20 mM ascorbic acid, 20 μg/mL catalase and 20 μM methylene blue), and 20 μL of the solution was transferred to an enzyme reaction plate and incubated at 23° C. for 30 min. The reaction was started by adding 10 μL of 400 μM L-type tryptophan substrate and incubated at 23° C. for 90 min. 10 μL of NFK Green™ fluorescent dye was added, and the plate was sealed with the sealing film, incubated at 37° C. for 4 h, and then read on Envision Multimode Plate Reader (Ex 400 nm/Em 510 nm).
The control wells with the IDO1 enzyme but no compound was set as 0% inhibition, and the control wells without the IDO1 enzyme was set as 100% inhibition, and the IC50 value of the compound was calculated by analyzing the data with XLFit 5.

T1 sequence (P14902 whole entry): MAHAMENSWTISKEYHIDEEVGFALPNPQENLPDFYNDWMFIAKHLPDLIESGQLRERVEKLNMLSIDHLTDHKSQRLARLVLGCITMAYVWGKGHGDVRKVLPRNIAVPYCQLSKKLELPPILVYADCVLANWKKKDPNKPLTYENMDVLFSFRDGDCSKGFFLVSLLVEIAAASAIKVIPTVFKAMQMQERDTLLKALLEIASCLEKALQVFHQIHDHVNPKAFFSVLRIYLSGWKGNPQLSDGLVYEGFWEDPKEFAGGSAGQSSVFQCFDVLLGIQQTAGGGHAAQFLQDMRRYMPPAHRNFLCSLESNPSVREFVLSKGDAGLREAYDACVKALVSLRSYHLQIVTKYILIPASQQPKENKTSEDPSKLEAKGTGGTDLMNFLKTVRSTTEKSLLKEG

IC50 [µM]	Structure (SMILES)
> 10	OC(CC1c2nn(C(F)(F)F)cc2-c2cncn21)C1CCCCC1 (single isomer, unassigned) [Example 1, 1-cyclohexyl-2-(2-(trifluoromethyl)-2,8-dihydroimidazo[1′,5′:1,5]pyrrolo[3,4-c]pyrazol-8-yl)ethanol]
> 10	OC(CC1c2nn(C(F)(F)F)cc2-c2cncn21)C1CCCCC1 (single isomer, unassigned) [Example 2, 1-cyclohexyl-2-(2-(trifluoromethyl)-2,8-dihydroimidazo[1′,5′:1,5]pyrrolo[3,4-c]pyrazol-8-yl)ethanol]
> 10	OC(CC1c2nn(C(F)(F)F)cc2-c2cncn21)C1CCCCC1 (single isomer, unassigned) [Example 3, 1-cyclohexyl-2-(2-(trifluoromethyl)-2,8-dihydroimidazo[1′,5′:1,5]pyrrolo[3,4-c]pyrazol-8-yl)ethanol]
5.03	OC(CC1c2sccc2-c2cncn21)C1CCCCC1 (single isomer, unassigned) [Example 5, cyclohexyl-2-(8H-thieno[3′,2′:3,4]pyrrolo[1,2-c]imidazol-8-yl)ethanol]
9.67	OC(CC1c2sccc2-c2cncn21)C1CCCCC1 (single isomer, unassigned) [Example 6, cyclohexyl-2-(8H-thieno[3′,2′:3,4]pyrrolo[1,2-c]imidazol-8-yl)ethanol]
0.0648	OC(CC1c2sccc2-c2cncn21)C1CCCCC1 (single isomer, unassigned) [Example 8, cyclohexyl-2-(8H-thieno[3′,2′:3,4]pyrrolo[1,2-c]imidazol-8-yl)ethanol]
> 10	c1cc2c(s1)C(C1CCCCC1)n1cncc1-2 (single isomer, unassigned) [Example 13, 8-cyclohexyl-8H-thieno[3,4]pyrrolo[1,5-a]imidazole]
5.22	c1cc2c(s1)C(CC1CCCCC1)n1cncc1-2 (single isomer, unassigned) [Example 15, 8-(cyclohexylmethyl)-8H-thieno[3,4]pyrrolo[1,5-a]imidazole]
0.338	c1cc2c(s1)C(COC1CCCCC1)n1cncc1-2 (single isomer, unassigned) [Example 17, 8-((cyclohexyloxy)methyl)-8H-thieno[3′,2′:3,4]pyrrolo[1,2-c]imidazole]
> 10	c1cc2c(s1)C(COC1CCCCC1)n1cncc1-2 (single isomer, unassigned) [Example 18, 8-((cyclohexyloxy)methyl)-8H-thieno[3′,2′:3,4]pyrrolo[1,2-c]imidazole]
> 10	Fc1cc2c(s1)C(CCC1CCCCC1)n1cncc1-2 (single isomer, unassigned) [Example 19, 8-(2-cyclohexylethyl)-2-fluoro-8H-thieno[3′,2′:3,4]pyrrolo[1,2-c]imidazole]
0.586	Fc1cc2c(s1)C(CCC1CCCCC1)n1cncc1-2 (single isomer, unassigned) [Example 20, 8-(2-cyclohexylethyl)-2-fluoro-8H-thieno[3′,2′:3,4]pyrrolo[1,2-c]imidazole]
9.16	FC1(F)CCC(CCC2c3sccc3-c3cncn32)CC1 (single isomer, unassigned) [Example 21, 8-(2-(4,4-difluorocyclohexyl)ethyl)-8H-thieno[3′,2′:3,4]pyrrolo[1,2-c]imidazole]
> 10	O=C1CC[C@H]2C[C@@H]([C@@H](O)CC3c4sccc4-c4cncn43)CCN12 (single isomer, unassigned) [Example 26]
0.869	O=C1CC[C@H]2C[C@@H]([C@@H](O)CC3c4sccc4-c4cncn43)CCN12 (single isomer, unassigned) [Example 27]
> 10	c1cc2c(s1)C(C1CCCOC1)n1cncc1-2 (single isomer, unassigned) [Example 33, 8-(tetrahydro-2H-pyran-3-yl)-8H-thieno[3′,2′:3,4]pyrrolo[1,2-c]imidazole]
> 10	c1cc2c(s1)C(C1CCCOC1)n1cncc1-2 (single isomer, unassigned) [Example 34, 8-(tetrahydro-2H-pyran-3-yl)-8H-thieno[3′,2′:3,4]pyrrolo[1,2-c]imidazole]
2.81	c1cc2c(s1)C(C1CCCOC1)n1cncc1-2 (single isomer, unassigned) [Example 35, 8-(tetrahydro-2H-pyran-3-yl)-8H-thieno[3′,2′:3,4]pyrrolo[1,2-c]imidazole]
2.43	c1cc2c(s1)C(C1CCCOC1)n1cncc1-2 (single isomer, unassigned) [Example 36, 8-(tetrahydro-2H-pyran-3-yl)-8H-thieno[3′,2′:3,4]pyrrolo[1,2-c]imidazole]
2.4	c1cc2c(s1)C(C1CCOCC1)n1cncc1-2 (single isomer, unassigned) [Example 37, 8-tetrahydropyran-4-8H-thieno[3,4]pyrrolo[1,5-a]imidazole]

IC50 [µM]	Structure (SMILES)
> 10	c1cc2c(s1)C(C1CCOCC1)n1cncc1-2 (single isomer, unassigned) [Example 38, 8-tetrahydropyran-4-8H-thieno[3,4]pyrrolo[1,5-a]imidazole]
> 10	FC1(F)CCC([C@@H]2c3sccc3-c3cncn32)CC1 (single isomer, unassigned) [Example 40]
> 10	OCC1(C2c3sccc3-c3cncn32)CCCCC1 (single isomer, unassigned) [Example 43, [1-(8H-thieno[3,4]pyrrolo[1,5-a]imidazol-8-yl)cyclohexyl]methanol]
> 10	c1cc2c(s1)C(C1CCC3(CC1)CC3)n1cncc1-2 (single isomer, unassigned) [Example 44, 8-spiro[2.5]octan-6-yl-8H-thieno[3,4]pyrrolo[1,5-a]imidazole]
3.83	c1cc2c(s1)C(C1CCC3(CC1)CC3)n1cncc1-2 (single isomer, unassigned) [Example 45, 8-spiro[2.5]octan-6-yl-8H-thieno[3,4]pyrrolo[1,5-a]imidazole]
0.518	c1cc2c(s1)C(C13CCC(CC1)CC3)n1cncc1-2 (single isomer, unassigned) [Example 48, 8-(4-bicyclo[2.2.2]octyl)-8H-thieno[3,4]pyrrolo[1,5-a]imidazole]
> 10	c1cc2c(s1)C(C13CCC(CC1)CC3)n1cncc1-2 (single isomer, unassigned) [Example 49, 8-(4-bicyclo[2.2.2]octyl)-8H-thieno[3,4]pyrrolo[1,5-a]imidazole]
> 10	OC1CCCCC1C1c2sccc2-c2cncn21 (single isomer, unassigned) [Example 50, 2-(8H-thieno[3,4]pyrrolo[1,5-a]imidazol-8-yl)cyclohexanol]
> 10	OC1CCCCC1C1c2sccc2-c2cncn21 (single isomer, unassigned) [Example 51, 2-(8H-thieno[3,4]pyrrolo[1,5-a]imidazol-8-yl)cyclohexanol]
0.676	OC1CCCCC1C1c2sccc2-c2cncn21 (single isomer, unassigned) [Example 52, 2-(8H-thieno[3,4]pyrrolo[1,5-a]imidazol-8-yl)cyclohexanol]
> 10	c1ccc2c(c1)CCC(C1c3sccc3-c3cncn31)C2 (single isomer, unassigned) [Example 54, 8-tetrahydronaphthalen-2-yl-8H-thieno[3,4]pyrrolo[1,5-a]imidazole]
> 10	c1ccc2c(c1)CCC(C1c3sccc3-c3cncn31)C2 (single isomer, unassigned) [Example 55, 8-tetrahydronaphthalen-2-yl-8H-thieno[3,4]pyrrolo[1,5-a]imidazole]
0.851	c1ccc2c(c1)CCC(C1c3sccc3-c3cncn31)C2 (single isomer, unassigned) [Example 56, 8-tetrahydronaphthalen-2-yl-8H-thieno[3,4]pyrrolo[1,5-a]imidazole]
0.886	c1ccc2c(c1)CCC(C1c3sccc3-c3cncn31)C2 (single isomer, unassigned) [Example 57, 8-tetrahydronaphthalen-2-yl-8H-thieno[3,4]pyrrolo[1,5-a]imidazole]
2.1	OC1CC(C2c3sccc3-c3cncn32)C1 (single isomer, unassigned) [Example 58, 3-(8H-thieno[3,4]pyrrolo[1,5-a]imidazol-8-yl)cyclobutanol]
> 10	OC1CC(C2c3sccc3-c3cncn32)C1 (single isomer, unassigned) [Example 59, 3-(8H-thieno[3,4]pyrrolo[1,5-a]imidazol-8-yl)cyclobutanol]
> 10	OC1CC(C2c3sccc3-c3cncn32)C1 (single isomer, unassigned) [Example 60, 3-(8H-thieno[3,4]pyrrolo[1,5-a]imidazol-8-yl)cyclobutanol]
1.2	OC1CC(C2c3sccc3-c3cncn32)C1 (single isomer, unassigned) [Example 61, 3-(8H-thieno[3,4]pyrrolo[1,5-a]imidazol-8-yl)cyclobutanol]
> 10	OC1CCCC(C2c3sccc3-c3cncn32)C1 (single isomer, unassigned) [Example 64, 3-(8H-thieno[3′,2′:3,4]pyrrolo[1,2-c]imidazol-8-yl)cyclohexanol]
